Assay results from US11584742B2 (MASARYKOVA UNIVERZITA, priority 2018, dated 2023).

What was measured:
[1] = molecular target: T1, MRE11 (Homo sapiens, UniProt P49959); test: HTS nuclease assay (cleavage of CY5/BBQ-quenched 5' overhang DNA substrate); type: biochemical; conditions: in vitro HTS nuclease assay; 18 nM MRE11, 40 nM DNA substrate; analysis at t=4 h
T1 sequence (P49959 1-708): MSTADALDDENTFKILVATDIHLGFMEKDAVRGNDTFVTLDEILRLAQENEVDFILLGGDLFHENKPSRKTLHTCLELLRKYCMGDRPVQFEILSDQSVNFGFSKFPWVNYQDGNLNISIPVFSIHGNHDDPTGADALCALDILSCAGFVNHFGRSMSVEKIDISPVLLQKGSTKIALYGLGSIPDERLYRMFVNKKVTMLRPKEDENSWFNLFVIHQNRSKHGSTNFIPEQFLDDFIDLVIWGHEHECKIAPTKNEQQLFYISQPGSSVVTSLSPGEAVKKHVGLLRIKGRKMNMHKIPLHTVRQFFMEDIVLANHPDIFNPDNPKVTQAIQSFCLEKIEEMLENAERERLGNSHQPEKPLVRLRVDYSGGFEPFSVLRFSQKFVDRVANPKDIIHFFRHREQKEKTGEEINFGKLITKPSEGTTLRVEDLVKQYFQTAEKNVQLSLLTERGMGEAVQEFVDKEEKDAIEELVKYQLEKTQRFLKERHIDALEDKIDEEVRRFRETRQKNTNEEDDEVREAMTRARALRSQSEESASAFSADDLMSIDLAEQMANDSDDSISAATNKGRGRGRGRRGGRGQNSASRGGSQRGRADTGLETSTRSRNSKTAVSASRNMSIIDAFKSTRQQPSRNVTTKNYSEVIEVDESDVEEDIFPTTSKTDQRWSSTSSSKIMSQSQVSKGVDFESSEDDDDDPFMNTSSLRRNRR
Protocol: DNA Substrate Preparation
The DNA substrate is prepared by mixing the oligonucleotides listed below in a 1:1 ratio to reach a final concentration of 6 μM in a buffer containing 50 mM Tris pH 7.5, 100 mM NaCl and 8 mM MgCl2.
This substrate is a 5′ overhang, which is a preferred substrate of MRE11. […] The fluorescence increases upon substrate cleavage by MRE11, when separation of the two labels occur.
The conditions of the assay are as follows:
Total reaction volume: 5 μL
DNA substrate concentration in the reaction: 40 nM
Inhibitor concentration range tested: 7 nM-50 μM
Each plate contains a series of high and low signal control wells, where no compound is added:
High signal: MRE11+DNA substrate
Low signal: DNA substrate only
These are used during data evaluation.
Two extra assay controls:
1) To check whether unwinding of DNA by the compounds alone occurs.
The DNA substrate [CY5+BBQ(650)] is mixed with the compounds with no protein present.
The CY5 single stranded oligo is mixed with the compounds with no protein present.
The layout of the plates is created by the in-house software (CZ-Openscreen Prague) and this information is transferred to the robotic HTS station.
The reaction is started by the addition of DNA and the reaction time is counted from that moment, including a 15 min delay. Ten timepoints are measured:
The assay data analysis was performed at t=4 h. This corresponds to the time when the reaction is close to its maximum.
The data analysis was performed using the in-house software to obtain IC50 for each compound.

[2] = test system: DR-GFP U2OS cells; test: HR assay (GFP fluorescence after I-SceI transfection, flow cytometry); type: cell-based; conditions: Homo sapiens, inhibitor at 25 μM, 72 hours after transfection
Protocol: DR-GFP U2OS cells (Methods in Molecular Biology 2012, 920, 379.) were transfected with 2.5 μg of I-SceI-expressing pCAGGS vector and treated with the inhibitors at 25 μM concentration. 72 hours after the transfection, the cells were trypsinized and resuspended in 3% BSA in PBS. GFP fluorescence detection was carried out using a BD FACSVerse flow cytometer and data analyzed with FlowJo software.

Structure (SMILES) | IC50 [1] | inhibition at 25 µM [2]
N#C/C(=C\c1ccc(O)c(O)c1)C(=O)Nc1nc(-c2ccc(OC(F)(F)F)cc2)c(C2CCCCC2)s1 [Preparative Example 175, (E)-2-cyano-N-(5-cyclohexyl-4-(4-(trifluoromethoxy)phenyl)thiazol-2-yl)-3-(3,4-dihydroxyphenyl)acrylamide] | 2 to 10 µM | > 75%
Cc1ccc(-c2csc(NC(=O)/C(C#N)=C/c3ccc(O)c(O)c3)n2)s1 [Preparative Example 229, (E)-2-cyano-3-(3,4-dihydroxyphenyl)-N-(4-(5-methylthiophen-2-yl)thiazol-2-yl)acrylamide] | < 2 µM | 50 to 75%
N#C/C(=C\c1ccc(O)c(O)c1)C(=O)Nc1nc(-c2ccc(N3CCOCC3)cc2)cs1 [Preparative Example 178] | < 2 µM | 50 to 75%
N#C/C(=C\c1ccc2c(c1)OCC(=O)N2)C(=O)Nc1nc(-c2ccccc2)cs1 [Preparative Example 220, (E)-2-cyano-3-(3-oxo-3,4-dihydro-2H-benzo[b][1,4]oxazin-7-yl)-N-(4-phenylthiazol-2-yl)acrylamide] | 10 to 90 µM | 50 to 75%
Cc1cc(/C=C(\C#N)C(=O)Nc2nc(-c3ccc(OC(F)(F)F)cc3)cs2)cc(C)c1O [Preparative Example 177, (E)-2-cyano-3-(3,5-dimethyl-4-hydroxyphenyl)-N-(4-(4-(trifluoromethoxy)phenyl)thiazol-2-yl)acrylamide] |  | > 75%
CC(C)c1cc(/C=C(\C#N)C(=O)Nc2nc(-c3ccccc3)cs2)cc(C(C)C)c1O [Preparative Example 237, (E)-2-cyano-3-(4-hydroxy-3,5-diisopropylphenyl)-N-(4-phenylthiazol-2-yl)acrylamide] |  | > 75%
CC(C)(C)c1cc(/C=C(\C#N)C(=O)Nc2nc(-c3ccccc3)cs2)cc(C(C)(C)C)n1 [Preparative Example 240, (E)-2-cyano-3-(2,6-di-tert-butylpyridin-4-yl)-N-(4-phenylthiazol-2-yl)acrylamide] |  | > 75%
Cc1cc(/C=C(\C#N)C(=O)Nc2nc(-c3ccccc3)cs2)cc(C(C)(C)C)c1O [Preparative Example 234, (E)-3-(3-(tert-butyl)-4-hydroxy-5-methylphenyl)-2-cyano-N-(4-phenylthiazol-2-yl)acrylamide] |  | > 75%
CC(C)(C)c1cc(/C=C(\C#N)C(=O)Nc2nc(-c3ccccc3)cs2)ccc1O [Preparative Example 235, (E)-3-(3-(tert-butyl)-4-hydroxyphenyl)-2-cyano-N-(4-phenylthiazol-2-yl)acrylamide] |  | > 75%
CC(C)(C)c1cc(/C=C(\C#N)C(=O)Nc2nc(-c3ccc(OC(F)(F)F)cc3)cs2)cc(C(C)(C)C)c1O [Preparative Example 221] |  | < 50%
Cc1cc(/C=C(\C#N)C(=O)Nc2nc(-c3ccccc3)cs2)ccc1O [Preparative Example 217, (E)-2-cyano-3-(4-hydroxy-3-methylphenyl)-N-(4-phenylthiazol-2-yl)acrylamide] |  | 50 to 75%
N#C/C(=C\c1ccc(O)cc1O)C(=O)Nc1nc(-c2ccccc2)cs1 [Preparative Example 218, (E)-2-cyano-3-(2,4-dihydroxyphenyl)-N-(4-phenylthiazol-2-yl)acrylamide] |  | 50 to 75%
N#C/C(=C\c1ccc(O)c(O)c1)C(=O)Nc1nc(-c2cccc(N3CCOCC3)n2)cs1 [Preparative Example 264, (E)-2-cyano-3-(3,4-dihydroxyphenyl)-N-(4-(6-morpholinopyridin-2-yl)thiazol-2-yl)acrylamide] | 2 to 10 µM | 
Cc1cc(/C=C(\C#N)C(=O)Nc2nc(-c3ccccn3)cs2)cc(C)c1O [Preparative Example 248, (E)-2-cyano-3-(4-hydroxy-3,5-dimethylphenyl)-N-(4-(pyridin-2-yl)thiazol-2-yl)acrylamide] | 10 to 90 µM | 
